Counter-ions that a name gives are not always drawn.
Biological target: human cloned 5-HT6 receptors (Homo sapiens, UniProt P50406)
Sequence (P50406 whole entry): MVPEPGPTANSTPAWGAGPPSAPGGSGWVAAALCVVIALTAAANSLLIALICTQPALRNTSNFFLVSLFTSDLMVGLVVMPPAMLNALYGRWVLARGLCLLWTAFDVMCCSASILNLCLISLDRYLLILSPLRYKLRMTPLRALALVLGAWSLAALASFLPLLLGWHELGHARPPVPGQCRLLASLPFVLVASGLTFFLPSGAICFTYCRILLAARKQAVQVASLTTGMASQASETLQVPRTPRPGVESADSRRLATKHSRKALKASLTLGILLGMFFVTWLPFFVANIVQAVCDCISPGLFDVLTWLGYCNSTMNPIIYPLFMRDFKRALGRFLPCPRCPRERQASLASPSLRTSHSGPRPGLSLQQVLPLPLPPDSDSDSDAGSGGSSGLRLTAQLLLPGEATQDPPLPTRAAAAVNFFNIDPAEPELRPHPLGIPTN

Structure (SMILES) | Ki
CN1CCC(c2n[nH]c3ccc(S(=O)(=O)c4cccc5ccccc45)cc23)CC1 [Example 4, 3-(1-Methylpiperidin-4-yl)-5-(1-naphthylsulfonyl)-1H-indazole hydrochloride] | 3.8 nM
CC(C)c1ccc(S(=O)(=O)c2ccc3[nH]nc(C4CCN(C)CC4)c3c2)cc1 [Example 12, 5-[4-(isopropylphenyl)sulfonyl]-3-(1-methylpiperidin-4-yl)-1H-indazole] | 14 nM
CN1CCC(c2n[nH]c3ccc(S(=O)(=O)c4ccc(F)cc4)cc23)CC1 [Example 8, 5-[(4-fluorophenyl)sulfonyl]-3-(1-methylpiperidin-4-yl)-1H-indazole] | 66 nM
COc1ccc(S(=O)(=O)c2ccc3[nH]nc(C4CCN(C)CC4)c3c2)cc1 [Example 14] | 123 nM
CN1CCC(c2n[nH]c3ccc(S(=O)(=O)c4ccc(C(F)(F)F)cc4)cc23)CC1 [Example 10, 3-(1-methylpiperidin-4-yl)-5-{[4-(trifluoromethyl)phenyl]sulfonyl}-1H-indazole] | 46 nM
CN1CCC(c2n[nH]c3ccc(S(=O)(=O)c4cccc(F)c4)cc23)CC1 [Example 6, 5-[(3-fluorophenyl)sulfonyl]-3-(1-methylpiperidin-4-yl)-1H-indazole] | 93 nM
CN1CCC(c2n[nH]c3ccc(S(=O)(=O)c4ccccc4)cc23)CC1 [Example 5, 3-(1-methylpiperidin-4-yl)-5-(phenylsulfonyl)-1H-indazole] | 55 nM
CN1CCC(c2n[nH]c3ccc(S(=O)(=O)c4ccc(OC(F)(F)F)cc4)cc23)CC1 [Example 11, 3-(1-methylpiperidin-4-yl)-5-{[4-(trifluoromethoxy)phenyl]sulfonyl}-1H-indazole] | 48 nM
Cc1cccc(S(=O)(=O)c2ccc3[nH]nc(C4CCN(C)CC4)c3c2)c1 [Example 9, 5-[(3-methylphenyl)sulfonyl]-3-(1-methylpiperidin-4-yl)-1H-indazole] | 50 nM
CN1CCC(c2n[nH]c3ccc(S(=O)(=O)c4cccc(Cl)c4)cc23)CC1 [Example 7, 5-[(3-chlorophenyl)sulfonyl]-3-(1-methylpiperidin-4-yl)-1H-indazole] | 19 nM
CN1CCC(c2n[nH]c3ccc(S(=O)(=O)c4ccc5ccccc5c4)cc23)CC1 [Example 13, 3-(1-methylpiperidin-4-yl)-5-(2-naphthylsulfonyl)-1H-indazole] | 9.6 nM
